Reference: ChEMBL document CHEMBL1134202, “Selectivity of inhibition of matrix metalloproteases MMP-3 and MMP-2 by succinyl hydroxamates and their carboxylic acid analogues is dependent on P3' group chirality” (Bioorg Med Chem Lett, 2001)

Assays:
[1] = target: Matrix metalloproteinase-14 (Homo sapiens, UniProt P50281)
[2] = target: Matrix metalloproteinase-9 (Homo sapiens, UniProt P14780)
Stromelysin-1 = Stromelysin-1 (Homo sapiens, UniProt P08254)
Sequence of Stromelysin-1 (P08254 whole entry): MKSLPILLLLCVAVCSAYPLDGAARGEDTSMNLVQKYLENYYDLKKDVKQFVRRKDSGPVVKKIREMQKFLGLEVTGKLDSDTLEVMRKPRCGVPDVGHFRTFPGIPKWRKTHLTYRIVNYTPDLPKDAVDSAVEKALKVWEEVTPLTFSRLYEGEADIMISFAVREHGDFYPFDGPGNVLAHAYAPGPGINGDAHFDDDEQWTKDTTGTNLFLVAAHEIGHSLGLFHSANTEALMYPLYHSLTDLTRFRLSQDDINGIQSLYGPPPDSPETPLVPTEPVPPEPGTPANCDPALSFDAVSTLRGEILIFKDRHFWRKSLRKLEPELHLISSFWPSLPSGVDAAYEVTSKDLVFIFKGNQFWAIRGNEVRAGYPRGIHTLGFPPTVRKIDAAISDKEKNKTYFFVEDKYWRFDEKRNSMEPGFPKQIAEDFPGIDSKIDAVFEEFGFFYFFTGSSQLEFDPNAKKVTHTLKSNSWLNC

Sequence of Matrix metalloproteinase-9 (P14780 whole entry): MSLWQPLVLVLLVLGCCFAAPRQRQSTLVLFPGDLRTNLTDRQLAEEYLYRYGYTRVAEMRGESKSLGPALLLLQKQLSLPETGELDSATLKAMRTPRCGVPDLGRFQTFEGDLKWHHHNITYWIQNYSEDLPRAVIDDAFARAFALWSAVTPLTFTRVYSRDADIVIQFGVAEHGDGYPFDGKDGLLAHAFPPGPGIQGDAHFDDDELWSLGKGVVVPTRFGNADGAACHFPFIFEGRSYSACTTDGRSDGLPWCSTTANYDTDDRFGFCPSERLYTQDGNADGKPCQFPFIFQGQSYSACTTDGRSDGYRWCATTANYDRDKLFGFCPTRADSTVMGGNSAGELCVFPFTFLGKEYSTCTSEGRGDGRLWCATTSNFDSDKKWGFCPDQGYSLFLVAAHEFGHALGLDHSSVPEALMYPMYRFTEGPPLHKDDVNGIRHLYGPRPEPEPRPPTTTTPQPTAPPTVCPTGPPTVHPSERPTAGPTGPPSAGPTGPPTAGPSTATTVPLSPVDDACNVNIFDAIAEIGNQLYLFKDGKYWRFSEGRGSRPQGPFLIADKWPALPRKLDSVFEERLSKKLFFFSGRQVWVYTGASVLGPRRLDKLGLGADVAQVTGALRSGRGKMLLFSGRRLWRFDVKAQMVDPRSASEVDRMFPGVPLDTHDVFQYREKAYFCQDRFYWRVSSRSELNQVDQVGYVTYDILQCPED

Row | IC50 [1] | IC50 [2] | Ki (Stromelysin-1) | SMILES
1 | 2.9 nM | 0.67 nM |  | CNC(=O)[C@H](Cc1ccccc1)NC(=O)[C@H](CC(C)C)[C@H](CSc1cccs1)C(=O)NO [BATIMASTAT]
2 |  |  | 26 nM | CNC(=O)[C@H](Cc1c[nH]c2ccccc12)NC(=O)[C@@H](CC(=O)NO)CC(C)C [ILOMASTAT]
